Among the data in PMC12123037, “Cleavage of CAD by caspase-3 determines the cancer cell fate during chemotherapy” (Nature Communications, 2025) are Kd values, retold here.

The experiment has as its target T1, CAD (GFP-CAD; assayed as GFP-CAD-D1371A) (Homo sapiens, UniProt P27708, D1371A).
T1 construct: full-length CAD subcloned into Not I/Bgl II sites of pEGFP-N1-His (GFP fusion, GFP kept); expressed in HEK-293T; RIPA lysate diluted 150x in MST buffer, not purified
Kind of experiment: microscale thermophoresis, GFP fusion in diluted HEK-293T lysate. Type of experiment: binding. The text has this:
microscale thermophoresis, GFP fusion in diluted HEK-293T lysate on CAD (GFP-CAD; assayed as GFP-CAD-D1371A) | direct interaction between RMY-186 and CAD-D1371A protein in vitro, with a Kd of […]

T1 sequence (P27708 whole entry D1371A, the tested form may be a part): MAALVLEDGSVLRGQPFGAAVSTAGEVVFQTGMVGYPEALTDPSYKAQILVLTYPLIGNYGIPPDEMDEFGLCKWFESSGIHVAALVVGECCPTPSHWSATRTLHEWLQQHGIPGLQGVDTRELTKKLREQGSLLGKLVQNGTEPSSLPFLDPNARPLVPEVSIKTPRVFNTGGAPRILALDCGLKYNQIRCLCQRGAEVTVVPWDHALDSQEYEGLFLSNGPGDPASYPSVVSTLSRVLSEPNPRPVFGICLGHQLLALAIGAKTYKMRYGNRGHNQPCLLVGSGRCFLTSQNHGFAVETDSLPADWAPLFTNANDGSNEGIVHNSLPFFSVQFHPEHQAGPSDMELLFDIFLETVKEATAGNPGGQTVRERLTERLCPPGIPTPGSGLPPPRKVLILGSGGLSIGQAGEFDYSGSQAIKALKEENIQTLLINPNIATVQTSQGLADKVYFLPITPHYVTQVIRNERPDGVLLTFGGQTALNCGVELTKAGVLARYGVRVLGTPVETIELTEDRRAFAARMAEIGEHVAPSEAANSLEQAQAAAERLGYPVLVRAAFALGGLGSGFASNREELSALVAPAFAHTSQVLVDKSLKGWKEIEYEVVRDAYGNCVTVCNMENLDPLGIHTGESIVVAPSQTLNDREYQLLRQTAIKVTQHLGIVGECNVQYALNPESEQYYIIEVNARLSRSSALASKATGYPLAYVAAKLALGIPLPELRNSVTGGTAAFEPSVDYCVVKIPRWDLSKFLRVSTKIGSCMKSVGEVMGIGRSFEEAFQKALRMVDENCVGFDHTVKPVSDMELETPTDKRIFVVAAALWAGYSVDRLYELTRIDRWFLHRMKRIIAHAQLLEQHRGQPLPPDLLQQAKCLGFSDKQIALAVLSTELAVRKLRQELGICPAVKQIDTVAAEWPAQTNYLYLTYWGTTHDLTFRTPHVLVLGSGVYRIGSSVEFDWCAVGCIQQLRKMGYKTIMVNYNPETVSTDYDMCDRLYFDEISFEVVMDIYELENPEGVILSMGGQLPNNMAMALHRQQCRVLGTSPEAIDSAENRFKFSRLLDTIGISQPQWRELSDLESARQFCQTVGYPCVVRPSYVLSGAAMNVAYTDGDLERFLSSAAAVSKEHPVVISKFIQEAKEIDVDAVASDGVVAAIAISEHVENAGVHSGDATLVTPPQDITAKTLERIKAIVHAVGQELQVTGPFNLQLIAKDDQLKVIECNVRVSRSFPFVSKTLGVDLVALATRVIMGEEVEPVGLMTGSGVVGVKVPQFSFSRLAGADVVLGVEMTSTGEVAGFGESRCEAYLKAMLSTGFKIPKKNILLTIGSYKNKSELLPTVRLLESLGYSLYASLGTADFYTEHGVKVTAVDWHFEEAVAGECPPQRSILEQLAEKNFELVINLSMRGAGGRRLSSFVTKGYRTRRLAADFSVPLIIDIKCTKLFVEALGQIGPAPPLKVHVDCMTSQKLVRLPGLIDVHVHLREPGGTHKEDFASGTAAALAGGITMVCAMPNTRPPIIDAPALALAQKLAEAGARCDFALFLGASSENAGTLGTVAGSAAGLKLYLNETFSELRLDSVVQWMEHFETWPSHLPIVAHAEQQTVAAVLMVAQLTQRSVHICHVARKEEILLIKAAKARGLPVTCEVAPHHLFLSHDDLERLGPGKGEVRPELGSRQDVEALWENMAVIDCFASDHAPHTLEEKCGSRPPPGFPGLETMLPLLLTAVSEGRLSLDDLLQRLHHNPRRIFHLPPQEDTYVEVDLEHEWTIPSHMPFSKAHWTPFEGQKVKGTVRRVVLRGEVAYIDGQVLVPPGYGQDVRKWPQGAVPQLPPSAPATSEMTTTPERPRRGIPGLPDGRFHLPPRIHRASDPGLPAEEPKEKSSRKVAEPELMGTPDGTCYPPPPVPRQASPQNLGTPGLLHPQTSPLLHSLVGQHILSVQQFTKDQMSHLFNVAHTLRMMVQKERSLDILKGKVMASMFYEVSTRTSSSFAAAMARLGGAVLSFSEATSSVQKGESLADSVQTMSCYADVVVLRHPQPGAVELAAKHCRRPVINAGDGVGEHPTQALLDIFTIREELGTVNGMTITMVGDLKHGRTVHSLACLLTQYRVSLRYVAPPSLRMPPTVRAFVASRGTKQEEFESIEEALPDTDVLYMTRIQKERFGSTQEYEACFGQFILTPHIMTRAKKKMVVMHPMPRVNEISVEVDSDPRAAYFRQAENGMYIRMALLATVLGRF

Take `O=c1c(O)c(N2CCN(Cc3cccc(Br)c3)CC2)oc2ccccc12` [compound 9, 2-(4-(3-bromobenzyl)-piperazin-1-yl)-3-hydroxy-4H-chromen-4-one]: the Kd is 6.78 µM.
